Measurements reported in publication PMC13408680, “SLC26A11 is an atypical solute carrier with dual transport-channel function mediating lysosomal sulfate transport” (Nature Communications, 2026).

B1: SLC26A11^ΔC (SLC26A11(ΔC)) (Homo sapiens) (protein)
chain: MPSSVTALGQARSSGPGMAPSACCCSPAALQRRLPILAWLPSYSLQWLKMDFVAGLSVGLTAIPQALAYAEVAGLPPQYGLYSAFMGCFVYFFLGTSRDVTLGPTAIMSLLVSFYTFHEPAYAVLLAFLSGCIQLAMGVLRLGFLLDFISYPVIKGFTSAAAVTIGFGQIKNLLGLQNIPRPFFLQVYHTFLRIAETRVGDAVLGLVCMLLLLVLKLMRDHVPPVHPEMPPGVRLSRGLVWAATTARNALVVSFAALVAYSFEVTGYQPFILTGETAEGLPPVRIPPFSVTTANGTISFTEMVQDMGAGLAVVPLMGLLESIAVAKAFASQNNYRIDANQELLAIGLTNMLGSLVSSYPVTGSFGRTAVNAQSGVCTPAGGLVTGVLVLLSLDYLTSLFYYIPKSALAAVIIMAVAPLFDTKIFRTLWRVKRLDLLPLCVTFLLCFWEVQYGILAGALVSLLMLLHSAARPETKVSEGPVLVLQPASGLSFPAMEALREEILSRALEVSPPRCLVLECTHVCSIDYTVVLGLGELLQDFQKQGVALAFVGLQVPVLRVLLSADLKGFQYFSTLEEAEKHLRQE
notes: C-terminal disordered 23 residues deleted (MD model residues 26-583); expressed in Trichoplusia ni cells by baculovirus; N-glycosylated at Asn-294; homodimer; DDM micelles (DSF), SoyPC/BMP proteoliposomes (transport), MSP1-E3D1 nanodiscs (cryo-EM)

Experiments:
[1] = target: T1, SLC26A11^ΔC (SLC26A11(ΔC)) (Homo sapiens, UniProt Q86WA9, E320Q); assay: differential scanning fluorimetry (nanoDSF), anion titration; type: binding
T1 construct: C-terminal disordered 23 residues deleted (MD model residues 26-583); expressed in Trichoplusia ni cells by baculovirus; N-glycosylated at Asn-294; homodimer; DDM micelles (DSF), SoyPC/BMP proteoliposomes (transport), MSP1-E3D1 nanodiscs (cryo-EM)
T1 sequence (Q86WA9 1-583 E320Q): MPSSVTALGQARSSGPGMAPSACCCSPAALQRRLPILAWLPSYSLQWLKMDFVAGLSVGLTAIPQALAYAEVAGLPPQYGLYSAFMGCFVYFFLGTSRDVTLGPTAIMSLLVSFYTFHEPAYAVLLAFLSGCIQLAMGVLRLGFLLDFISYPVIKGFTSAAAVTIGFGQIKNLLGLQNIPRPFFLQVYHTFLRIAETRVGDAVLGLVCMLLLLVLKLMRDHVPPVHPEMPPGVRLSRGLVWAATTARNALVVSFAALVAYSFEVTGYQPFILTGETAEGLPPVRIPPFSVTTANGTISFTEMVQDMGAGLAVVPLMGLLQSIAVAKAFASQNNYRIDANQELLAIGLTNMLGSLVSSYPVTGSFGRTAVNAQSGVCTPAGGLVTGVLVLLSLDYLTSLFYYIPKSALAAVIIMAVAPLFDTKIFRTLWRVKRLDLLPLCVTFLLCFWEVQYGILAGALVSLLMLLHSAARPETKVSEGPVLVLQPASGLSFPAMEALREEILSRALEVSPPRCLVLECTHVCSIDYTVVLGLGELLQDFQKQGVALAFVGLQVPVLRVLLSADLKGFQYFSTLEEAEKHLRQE

[2] = target: T2, SLC26A11^ΔC (SLC26A11(ΔC)) (Homo sapiens, UniProt Q86WA9); assay: as above; type: binding; conditions: read-out: apparent KD
T2 construct: C-terminal disordered 23 residues deleted (MD model residues 26-583); expressed in Trichoplusia ni cells by baculovirus; N-glycosylated at Asn-294; homodimer; DDM micelles (DSF), SoyPC/BMP proteoliposomes (transport), MSP1-E3D1 nanodiscs (cryo-EM)
T2 sequence (Q86WA9 1-583): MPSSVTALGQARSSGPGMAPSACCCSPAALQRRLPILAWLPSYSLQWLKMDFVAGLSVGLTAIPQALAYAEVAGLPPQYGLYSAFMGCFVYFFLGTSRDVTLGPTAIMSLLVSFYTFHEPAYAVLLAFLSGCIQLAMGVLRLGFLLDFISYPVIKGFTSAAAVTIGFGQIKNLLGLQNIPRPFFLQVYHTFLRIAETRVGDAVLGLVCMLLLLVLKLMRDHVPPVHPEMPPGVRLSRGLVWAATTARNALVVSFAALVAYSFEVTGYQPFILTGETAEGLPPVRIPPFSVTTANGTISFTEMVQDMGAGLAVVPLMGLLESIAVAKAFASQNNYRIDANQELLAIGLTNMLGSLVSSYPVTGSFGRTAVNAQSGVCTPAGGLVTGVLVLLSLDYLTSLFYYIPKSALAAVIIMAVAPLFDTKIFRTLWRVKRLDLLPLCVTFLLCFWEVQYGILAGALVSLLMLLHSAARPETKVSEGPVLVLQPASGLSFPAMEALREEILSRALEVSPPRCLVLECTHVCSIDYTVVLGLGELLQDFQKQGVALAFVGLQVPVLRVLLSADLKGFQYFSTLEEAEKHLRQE

[3] = substrate: O=S(=O)(O)O; assay: purified protein; type: biochemical, Homo sapiens; conditions: pH out 5.0, pH in 7.5, 50 mM internal chloride, 30 °C, labelled compound

Row | Molecule | Kd [1] [mM] | Kd [2] [mM] | Km [3] [µM]
1 | Cl [chloride] | 8.8 ± 1.4 | 6 ± 1.4 | 
2 | O=S(=O)(O)O [sulfate] | 0.019 ± 0.004 | 0.057 ± 0.011 | 
3 | B1 |  |  | 39.7 ± 5.5
